Data taken from patent US9340590B2 (priority 2011, dated 2016).
Like-named read-outs stand apart in the source and are kept apart here. Positions of bridges follow the written chain, without caps; N, C: chain ends. Residues, ends and D or L forms follow the SMILES beside them.

Experiments:
Experiment in all cases: cell-based
hNav1.3 = hNav1.3 (Homo sapiens, UniProt Q9NY46); conditions: IonWorks Quattro, use-dependent protocol, hNav1.3; read-out: IWQ Use Nav1.3
hNav1.5 = hNav1.5 (Homo sapiens, UniProt Q14524); conditions: IonWorks Quattro, use-dependent protocol, hNav1.5; read-out: IWQ Use Nav1.5
hNav1.7 = hNav1.7 (Homo sapiens, UniProt Q15858); format: cell-based
[1] = IonWorks Quattro, use-dependent protocol, hNav1.7, read-out: IWQ Use Nav1.7

hNav1.5, sequence (Q14524 whole entry, looked up): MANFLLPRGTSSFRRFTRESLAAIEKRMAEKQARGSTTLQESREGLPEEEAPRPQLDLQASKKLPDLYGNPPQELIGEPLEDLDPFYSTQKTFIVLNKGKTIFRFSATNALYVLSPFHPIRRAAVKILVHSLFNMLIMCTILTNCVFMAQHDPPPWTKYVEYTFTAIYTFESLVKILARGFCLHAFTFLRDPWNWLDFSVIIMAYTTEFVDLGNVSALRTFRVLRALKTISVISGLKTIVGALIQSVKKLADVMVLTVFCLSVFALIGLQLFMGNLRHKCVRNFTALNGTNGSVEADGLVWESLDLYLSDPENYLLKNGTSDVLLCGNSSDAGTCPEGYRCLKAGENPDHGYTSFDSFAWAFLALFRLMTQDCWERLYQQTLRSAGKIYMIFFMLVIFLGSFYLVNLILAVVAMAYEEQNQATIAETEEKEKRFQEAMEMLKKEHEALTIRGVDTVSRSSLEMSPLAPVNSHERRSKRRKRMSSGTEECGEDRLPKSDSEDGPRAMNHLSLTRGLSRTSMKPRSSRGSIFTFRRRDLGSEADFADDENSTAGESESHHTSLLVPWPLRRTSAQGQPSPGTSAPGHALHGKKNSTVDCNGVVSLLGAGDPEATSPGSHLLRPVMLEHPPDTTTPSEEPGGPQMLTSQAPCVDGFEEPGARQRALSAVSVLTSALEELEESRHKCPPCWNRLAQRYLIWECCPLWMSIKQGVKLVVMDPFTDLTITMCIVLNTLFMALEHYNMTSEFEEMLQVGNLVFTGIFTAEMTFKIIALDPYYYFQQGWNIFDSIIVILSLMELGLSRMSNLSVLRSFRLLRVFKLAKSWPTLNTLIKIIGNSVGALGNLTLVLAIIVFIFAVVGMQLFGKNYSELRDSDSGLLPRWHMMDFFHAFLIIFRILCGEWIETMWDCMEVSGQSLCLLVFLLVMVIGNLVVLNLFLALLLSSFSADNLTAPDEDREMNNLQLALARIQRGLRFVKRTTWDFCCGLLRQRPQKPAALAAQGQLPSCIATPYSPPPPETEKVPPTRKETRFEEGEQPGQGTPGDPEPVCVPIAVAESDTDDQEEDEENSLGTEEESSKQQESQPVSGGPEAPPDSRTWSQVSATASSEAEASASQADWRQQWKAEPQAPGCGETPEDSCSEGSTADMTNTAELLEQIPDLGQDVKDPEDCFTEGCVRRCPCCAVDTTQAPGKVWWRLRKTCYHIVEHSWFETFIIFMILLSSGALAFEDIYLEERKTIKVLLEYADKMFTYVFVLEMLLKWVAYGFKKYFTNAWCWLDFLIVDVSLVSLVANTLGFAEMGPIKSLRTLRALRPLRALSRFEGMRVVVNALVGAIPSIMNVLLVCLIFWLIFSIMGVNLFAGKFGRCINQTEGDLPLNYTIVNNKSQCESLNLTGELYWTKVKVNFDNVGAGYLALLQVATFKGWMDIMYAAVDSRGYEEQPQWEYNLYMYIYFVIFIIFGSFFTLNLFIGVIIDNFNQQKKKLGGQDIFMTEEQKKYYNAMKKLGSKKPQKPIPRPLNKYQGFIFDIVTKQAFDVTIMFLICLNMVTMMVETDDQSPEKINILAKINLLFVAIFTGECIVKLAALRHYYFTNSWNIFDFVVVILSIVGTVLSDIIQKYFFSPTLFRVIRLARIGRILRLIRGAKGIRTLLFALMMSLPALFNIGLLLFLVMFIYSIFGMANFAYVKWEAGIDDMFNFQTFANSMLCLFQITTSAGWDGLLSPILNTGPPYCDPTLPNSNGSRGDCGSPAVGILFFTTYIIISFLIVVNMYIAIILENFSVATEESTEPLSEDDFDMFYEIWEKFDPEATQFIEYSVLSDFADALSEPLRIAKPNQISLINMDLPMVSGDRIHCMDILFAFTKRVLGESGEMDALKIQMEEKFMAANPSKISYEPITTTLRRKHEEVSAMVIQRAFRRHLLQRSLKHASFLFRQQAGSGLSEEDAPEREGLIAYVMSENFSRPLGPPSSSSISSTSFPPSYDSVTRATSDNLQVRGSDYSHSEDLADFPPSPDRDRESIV
hNav1.3, sequence (Q9NY46 whole entry, looked up): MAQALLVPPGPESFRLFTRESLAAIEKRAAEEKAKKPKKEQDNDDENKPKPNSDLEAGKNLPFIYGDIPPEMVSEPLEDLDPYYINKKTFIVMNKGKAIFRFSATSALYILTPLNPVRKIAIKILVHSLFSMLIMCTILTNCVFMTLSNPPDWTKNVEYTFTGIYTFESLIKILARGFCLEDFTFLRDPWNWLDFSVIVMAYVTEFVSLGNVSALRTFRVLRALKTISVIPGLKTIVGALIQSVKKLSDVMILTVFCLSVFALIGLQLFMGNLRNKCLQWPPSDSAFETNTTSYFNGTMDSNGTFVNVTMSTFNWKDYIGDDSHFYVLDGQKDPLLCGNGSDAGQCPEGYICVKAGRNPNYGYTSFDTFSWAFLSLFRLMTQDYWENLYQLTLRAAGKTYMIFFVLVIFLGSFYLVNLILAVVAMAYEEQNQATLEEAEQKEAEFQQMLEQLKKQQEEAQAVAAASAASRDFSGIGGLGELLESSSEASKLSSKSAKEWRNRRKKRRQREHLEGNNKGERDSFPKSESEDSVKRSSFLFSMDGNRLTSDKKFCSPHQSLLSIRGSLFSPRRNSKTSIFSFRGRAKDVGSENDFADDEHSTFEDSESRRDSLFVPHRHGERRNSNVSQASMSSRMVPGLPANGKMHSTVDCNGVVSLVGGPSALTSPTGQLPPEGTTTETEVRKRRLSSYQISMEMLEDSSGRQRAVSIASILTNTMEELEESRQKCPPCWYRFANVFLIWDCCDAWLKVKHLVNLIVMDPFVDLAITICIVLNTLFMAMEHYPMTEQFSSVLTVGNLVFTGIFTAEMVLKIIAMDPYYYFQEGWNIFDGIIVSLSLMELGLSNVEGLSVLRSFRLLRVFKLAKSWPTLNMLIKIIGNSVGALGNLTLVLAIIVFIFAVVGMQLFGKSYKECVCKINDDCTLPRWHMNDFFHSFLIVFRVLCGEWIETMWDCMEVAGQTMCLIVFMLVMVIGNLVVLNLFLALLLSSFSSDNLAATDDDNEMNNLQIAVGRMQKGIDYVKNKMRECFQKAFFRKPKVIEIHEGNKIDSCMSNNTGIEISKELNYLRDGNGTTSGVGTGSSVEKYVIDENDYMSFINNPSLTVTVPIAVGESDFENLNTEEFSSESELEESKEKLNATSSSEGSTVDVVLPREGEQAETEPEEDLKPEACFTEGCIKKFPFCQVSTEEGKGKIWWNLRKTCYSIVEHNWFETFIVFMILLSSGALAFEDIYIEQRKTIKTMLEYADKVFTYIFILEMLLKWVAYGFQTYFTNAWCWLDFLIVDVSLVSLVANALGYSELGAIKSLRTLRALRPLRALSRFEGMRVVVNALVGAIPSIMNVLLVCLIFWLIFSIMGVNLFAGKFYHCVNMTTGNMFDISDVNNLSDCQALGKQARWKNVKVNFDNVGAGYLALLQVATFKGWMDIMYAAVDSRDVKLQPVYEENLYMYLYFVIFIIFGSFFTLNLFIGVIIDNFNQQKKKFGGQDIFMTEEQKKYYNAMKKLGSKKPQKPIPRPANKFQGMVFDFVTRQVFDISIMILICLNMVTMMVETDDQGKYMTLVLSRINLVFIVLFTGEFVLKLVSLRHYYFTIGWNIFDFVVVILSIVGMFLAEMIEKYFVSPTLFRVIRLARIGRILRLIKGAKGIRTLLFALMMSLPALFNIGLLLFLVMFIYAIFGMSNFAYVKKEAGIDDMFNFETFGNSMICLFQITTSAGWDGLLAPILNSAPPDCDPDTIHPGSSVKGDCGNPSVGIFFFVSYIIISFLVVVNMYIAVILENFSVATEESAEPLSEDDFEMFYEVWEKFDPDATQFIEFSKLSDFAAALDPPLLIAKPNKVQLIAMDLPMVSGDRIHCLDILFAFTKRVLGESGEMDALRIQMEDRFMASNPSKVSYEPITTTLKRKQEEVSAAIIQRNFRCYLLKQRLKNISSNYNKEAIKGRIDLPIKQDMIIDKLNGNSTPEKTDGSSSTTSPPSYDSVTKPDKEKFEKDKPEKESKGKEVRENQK

Compound	IC50 (hNav1.3)	IC50 (hNav1.5)	IC50 (hNav1.7; [1])	IC50 (hNav1.7)
CC[C@H](C)[C@@H]1NC(=O)[C@@H]2CSSC[C@@H]3NC(=O)[C@H](C(C)C)NC(=O)[C@H](CC(C)C)NC(=O)[C@H](CC(N)=O)NC(=O)[C@@H]4CCCN4C(=O)[C@H](CCCNC(=N)N)NC(=O)[C@H](CSSC[C@H](NC(=O)[C@@H](N)CC(=O)O)C(=O)N[C@@H](CC(C)C)C(=O)NCC(=O)N[C@@H](CO)C(=O)N[C@@H](CC(C)C)C(=O)N[C@@H](CCCNC(=N)N)C(=O)N[C@@H](CCCCN)C(=O)N2)NC(=O)[C@H](CSSC[C@@H](C(=O)N[C@@H](CCCCN)C(=O)N[C@@H](Cc2ccc(O)cc2)C(=O)N[C@H](C(=O)N[C@@H](Cc2ccccc2)C(N)=O)C(C)C)NC(=O)[C@H](Cc2c[nH]c4ccccc24)NC(=O)[C@H](CCCCN)NC(=O)[C@H](Cc2c[nH]cn2)NC(=O)[C@H]([C@@H](C)O)NC(=O)[C@H](CCCNC(=N)N)NC(=O)[C@H](CO)NC3=O)NC(=O)[C@H](CCCCN)NC(=O)[C@H](CC(=O)O)NC(=O)[C@H](CC(N)=O)NC(=O)[C@H](CC(=O)O)NC(=O)[C@@H]2CCCN2C1=O [compound 643] (H-DCLGSLRKCIPDNDKCCRPNLVCSRTHKWCKYVF-NH2; disulfide 2-17, 9-23, 16-30)	3200 nM	> 5000 nM	1300 nM	–
CC[C@H](C)[C@@H]1NC(=O)[C@@H]2CSSC[C@@H]3NC(=O)[C@H](C(C)C)NC(=O)[C@H](CC(C)C)NC(=O)[C@H](CC(N)=O)NC(=O)[C@@H]4CCCN4C(=O)[C@H](CCCNC(=N)N)NC(=O)[C@H](CSSC[C@H](NC(=O)[C@@H](N)CC(=O)O)C(=O)N[C@@H](CC(C)C)C(=O)NCC(=O)N[C@@H](C(C)C)C(=O)N[C@@H](CC(C)C)C(=O)N[C@@H](CCCNC(=N)N)C(=O)N[C@@H](CCCCN)C(=O)N2)NC(=O)[C@H](CSSC[C@@H](C(=O)N[C@@H](CCCCN)C(=O)N[C@@H](Cc2ccc(O)cc2)C(=O)N[C@H](C(=O)N[C@@H](Cc2ccccc2)C(N)=O)C(C)C)NC(=O)[C@H](Cc2c[nH]c4ccccc24)NC(=O)[C@H](CCCCN)NC(=O)[C@H](Cc2c[nH]cn2)NC(=O)[C@H]([C@@H](C)O)NC(=O)[C@H](CCCNC(=N)N)NC(=O)[C@H](CO)NC3=O)NC(=O)[C@H](CCCCN)NC(=O)[C@H](CC(=O)O)NC(=O)[C@H](CC(N)=O)NC(=O)[C@H](CC(=O)O)NC(=O)[C@@H]2CCCN2C1=O [compound 644] (H-DCLGVLRKCIPDNDKCCRPNLVCSRTHKWCKYVF-NH2; disulfide 2-17, 9-23, 16-30)	480 nM	> 5000 nM	150 nM	–
CC[C@H](C)[C@@H]1NC(=O)[C@@H]2CSSC[C@@H]3NC(=O)[C@H](C(C)C)NC(=O)[C@H](CC(C)C)NC(=O)[C@H](CC(N)=O)NC(=O)[C@@H]4CCCN4C(=O)[C@H](CCCNC(=N)N)NC(=O)[C@H](CSSC[C@H](NC(=O)[C@@H](N)CC(=O)O)C(=O)N[C@@H](CC(C)C)C(=O)NCC(=O)N[C@@H](Cc4ccc(OC)c(OC)c4)C(=O)N[C@@H](CC(C)C)C(=O)N[C@@H](CCCNC(=N)N)C(=O)N[C@@H](CCCCN)C(=O)N2)NC(=O)[C@H](CSSC[C@@H](C(=O)N[C@@H](CCCCN)C(=O)N[C@@H](Cc2ccc(O)cc2)C(=O)N[C@H](C(=O)N[C@@H](Cc2ccccc2)C(N)=O)C(C)C)NC(=O)[C@H](Cc2c[nH]c4ccccc24)NC(=O)[C@H](CCCCN)NC(=O)[C@H](Cc2c[nH]cn2)NC(=O)[C@H]([C@@H](C)O)NC(=O)[C@H](CCCNC(=N)N)NC(=O)[C@H](CO)NC3=O)NC(=O)[C@H](CCCCN)NC(=O)[C@H](CC(=O)O)NC(=O)[C@H](CC(N)=O)NC(=O)[C@H](CC(=O)O)NC(=O)[C@@H]2CCCN2C1=O [compound 645]	2600 nM	> 5000 nM	2400 nM	–
CC[C@H](C)[C@@H]1NC(=O)[C@@H]2CSSC[C@@H]3NC(=O)[C@H](C(C)C)NC(=O)[C@H](CC(C)C)NC(=O)[C@H](CC(N)=O)NC(=O)[C@@H]4CCCN4C(=O)[C@H](CCCNC(=N)N)NC(=O)[C@H](CSSC[C@H](NC(=O)[C@@H](N)CC(=O)O)C(=O)N[C@@H](CC(C)C)C(=O)NCC(=O)N(C)CC(=O)N[C@@H](CC(C)C)C(=O)N[C@@H](CCCNC(=N)N)C(=O)N[C@@H](CCCCN)C(=O)N2)NC(=O)[C@H](CSSC[C@@H](C(=O)N[C@@H](CCCCN)C(=O)N[C@@H](Cc2ccc(O)cc2)C(=O)N[C@H](C(=O)N[C@@H](Cc2ccccc2)C(N)=O)C(C)C)NC(=O)[C@H](Cc2c[nH]c4ccccc24)NC(=O)[C@H](CCCCN)NC(=O)[C@H](Cc2c[nH]cn2)NC(=O)[C@H]([C@@H](C)O)NC(=O)[C@H](CCCNC(=N)N)NC(=O)[C@H](CO)NC3=O)NC(=O)[C@H](CCCCN)NC(=O)[C@H](CC(=O)O)NC(=O)[C@H](CC(N)=O)NC(=O)[C@H](CC(=O)O)NC(=O)[C@@H]2CCCN2C1=O [compound 646]	1700 nM	> 5000 nM	920 nM	–
CC[C@H](C)[C@@H]1NC(=O)[C@@H]2CSSC[C@@H]3NC(=O)[C@H](C(C)C)NC(=O)[C@H](CC(C)C)NC(=O)[C@H](CC(N)=O)NC(=O)[C@@H]4CCCN4C(=O)[C@H](CCCNC(=N)N)NC(=O)[C@H](CSSC[C@H](NC(=O)[C@@H](N)CC(=O)O)C(=O)N[C@@H](CC(C)C)C(=O)NCC(=O)N[C@H](C)C(=O)N[C@@H](CCSC)C(=O)N[C@@H](CCCNC(=N)N)C(=O)N[C@@H](CCCCN)C(=O)N2)NC(=O)[C@H](CSSC[C@@H](C(=O)N[C@@H](CCCCN)C(=O)N[C@@H](Cc2ccc(O)cc2)C(=O)N[C@H](C(=O)N[C@@H](Cc2ccccc2)C(N)=O)C(C)C)NC(=O)[C@H](Cc2c[nH]c4ccccc24)NC(=O)[C@H](CCCCN)NC(=O)[C@H](Cc2c[nH]cn2)NC(=O)[C@H]([C@@H](C)O)NC(=O)[C@H](CCCNC(=N)N)NC(=O)[C@H](CO)NC3=O)NC(=O)[C@H](CCCCN)NC(=O)[C@H](CC(=O)O)NC(=O)[C@H](CC(N)=O)NC(=O)[C@H](CC(=O)O)NC(=O)[C@@H]2CCCN2C1=O [compound 647]	> 5000 nM	> 5000 nM	–	4500 nM
CC[C@H](C)[C@@H]1NC(=O)[C@@H]2CSSC[C@@H]3NC(=O)[C@H](C(C)C)NC(=O)[C@H](CC(C)C)NC(=O)[C@H](CC(N)=O)NC(=O)[C@@H]4CCCN4C(=O)[C@H](CCCNC(=N)N)NC(=O)[C@H](CSSC[C@H](NC(=O)[C@@H](N)CC(=O)O)C(=O)N[C@@H](CC(C)C)C(=O)NCC(=O)NCCC(=O)N[C@@H](CCSC)C(=O)N[C@@H](CCCNC(=N)N)C(=O)N[C@@H](CCCCN)C(=O)N2)NC(=O)[C@H](CSSC[C@@H](C(=O)N[C@@H](CCCCN)C(=O)N[C@@H](Cc2ccc(O)cc2)C(=O)N[C@H](C(=O)N[C@@H](Cc2ccccc2)C(N)=O)C(C)C)NC(=O)[C@H](Cc2c[nH]c4ccccc24)NC(=O)[C@H](CCCCN)NC(=O)[C@H](Cc2c[nH]cn2)NC(=O)[C@H]([C@@H](C)O)NC(=O)[C@H](CCCNC(=N)N)NC(=O)[C@H](CO)NC3=O)NC(=O)[C@H](CCCCN)NC(=O)[C@H](CC(=O)O)NC(=O)[C@H](CC(N)=O)NC(=O)[C@H](CC(=O)O)NC(=O)[C@@H]2CCCN2C1=O [compound 648]	> 5000 nM	> 5000 nM	4700 nM	–
